# Patent publication US12491217B2, “Compositions and methods for promoting healthy neural development in an unborn baby” (The Regents of the University of California, priority 2019, dated 2025)
# Structures can show the parent of a compound that is named as a salt.
# Test system: thalamic explants from E14.5 embryos of ABX-treated dams
# Assay: Axon outgrowth assay with individual metabolite supplementation
# Assay type: cell-based, C57Bl/6J mice
# Conditions: for Length of ABX thalamic axons proximal to hypothalamus / Number of ABX thalamic axons proximal to hypothalamus: ABX thalamic + ABX hypothalamic explant; for Length of ABX thalamic axons proximal to hypothalamus / Number of ABX thalamic axons proximal to hypothalamus / Length of axons proximal to striatal explant: 1 nM, 100 nM, 10 uM; for Length of axons proximal to striatal explant / Number of axons per 200 μm of thalamic perimeter proximal to striatal explant: ABX thalamic + ABX striatal explant, 48 hrs; for Number of axons per 200 μm of thalamic perimeter proximal to striatal explant: physiologically-relevant concentrations (1 nM, 100 nM, 10 uM)
# Protocol: Dams were sacrificed on E14.5 by cervical dislocation to preclude confounding effects of CO2 on maternal and fetal physiology. Thalamic, striatal, and hypothalamic explants were isolated from E14.5 embryonic brains and transferred to ice-cold HBSS (Invitrogen). Explants were sliced to ˜500 μm and placed on a thin layer of 50 μl BD Matrigel (Beckton Dickinson) on a 15 mm coverslip. Each coverslip contained a thalamic explant at the center and a striatal and hypothalamic explant on each side, at 1 mm equidistant from the thalamic explant. Explants were incubated in warmed neurobasal complete media containing 1× neurobasal medium (Thermofisher Scientific), 1× GlutaMax (Thermofisher Scientific), and 2% B-27 (Thermofisher Scientific) for 48 hrs at 37° C., and fed with fresh media every 24 hrs. After 48 hrs, media was gently aspirated and replaced with 4% PFA for 1 hr and processed for immunofluorescence staining with 1:500 (3 tubulin III anti-mouse antibody (EMD Millipore MAB1637). Axons were imaged using a Leica DMi8 epifluorescence microscope and quantified using Fiji software^78. Axon numbers were quantified per 200 μm of thalamus at a distance of 200 μm from the thalamus. Length of axons was quantified by averaging length of the 10 longest axons proximal to striatum or hypothalamus. Data for number and length of axons in the explant co-culture system was normalized by subtraction of data from monoculture of thalamic explants from the corresponding experimental group.
# Thalamic, striatal, and hypothalamic explants from ABX-treated dams were harvested and cultured as described in the “axon outgrowth assay” section above. For metabolite treatment, BD Matrigel was supplemented with […], 100 nM, or 1 nM of trimethylamine-N-oxide (TMAO), 5-aminovalerate (5-AV), imidazole propionate (IP), 3-indoxyl-sulfate (3-IS), or hippurate (llip)^48,79-81. 5-aminovalerate is a precursor to N,N,N-trimethyl-5-aminovalerate (TMAV), which is not commercially available, and both are implicated in carnitine metabolism^82,83. Metabolite concentrations were determined as physiologically relevant, based on reported concentrations detected in blood and/or cerebrum from the mouse multiple tissue metabolomic database (MMIvIDB), human metabolome database (HMDB) and existing literature^48,79-81. Axons were stained, imaged and analyzed as described in the “axon outgrowth assay” section above.
Structure (SMILES),Length of ABX thalamic axons proximal to hypothalamus,Number of ABX thalamic axons proximal to hypothalamus,Length of axons proximal to striatal explant,Number of axons per 200 μm of thalamic perimeter proximal to striatal explant
"O=S(=O)(O)Oc1c[nH]c2ccccc12 [3-IS, 3-indoxyl sulfate]",No statistically significant changes,No statistically significant changes,"modest, but not statistically significant, increases in axon length","but not 3-IS, significantly increased axon number"
"NCCCCC(=O)O [5-AV, 5-aminovalerate]",No statistically significant changes,No statistically significant changes,significantly increased axon length,significantly increased axon number to levels seen in fetal brain explants from embryos of SPF dams
"O=C(O)CNC(=O)c1ccccc1 [HIP, hippurate]",No statistically significant changes,No statistically significant changes,no effect,significantly increased axon number to levels seen in fetal brain explants from embryos of SPF dams
"O=C(O)CCc1cnc[nH]1 [IP, imidazole propionate]",No statistically significant changes,No statistically significant changes,significantly increased axon length,significantly increased axon number to levels seen in fetal brain explants from embryos of SPF dams
"C[N+](C)(C)[O-] [TMAO, trimethylamine-N-oxide]",No statistically significant changes,No statistically significant changes,"modest, but not statistically significant, increases in axon length",significantly increased axon number to levels seen in fetal brain explants from embryos of SPF dams
